For the series, the system named is Holstein cows. Kind of series: Milk fatty acid composition after abomasal or ruminal infusion of SDA-enhanced soybean oil in dairy cows (gas chromatography). Conditions: of the SDA present in the abomasally infused oil; range=36.8 to 41.9%. Format: in vivo. The text has this:
In this Example, transgenic soybean oil containing SDA was either infused directly in the rumen or directly into the abomasum bypassing the rumen to examine the potential of using SDA-enhanced soybean oil to increase the milk fat content of omega-3 fatty acids in dairy cows and to determine the efficiency of SDA uptake from the digestive tract and transfer to milk fat.
Three multiparous, pregnant, rumen-fistulated Holstein cows averaging 267 days in lactation were assigned randomly to a 3×3 Latin square design. Treatments were: 1) control (no oil infusion); 2) abomasal infusion of SDA-enhanced SBO (SDA-abo) and 3) ruminal infusion of SDA-enhanced SBO (SDA-rum). Oil infusions (210 g/d) provided 57 g/d of stearidonic acid and infusion periods were 7 d with a 7 d washout between periods. […]
Cows were milked twice a day with two milk samples obtained at each milking. One milk sample was analyzed for major components (i.e., fat, protein, lactose) by infrared analysis. The second milk sample was analyzed for fatty acids with extraction, methylation and gas chromatographic analysis. Fatty acids were quantified using pure methyl ester standards and a butter oil reference standard was analyzed periodically to monitor column performance and correction factors for individual fatty acids. […]

The text below walks through data of patent US20120308682A1, “RUMINANT FEED, PRODUCTS, AND METHODS COMPRISING BENEFICIAL FATTY ACIDS” (MONSANTO TECHNOLOGY LLC, priority 2009, published 2012).

Consider `CC/C=C\C/C=C\C/C=C\C/C=C\CCCCC(=O)O` [SDA, stearidonic acid], for which the “transfer efficiency of SDA to milk fat” value is given as 39.3%.
